Read-outs that look alike come from different tables or passages of the source.
Legend:
[1] = test system: LDL-C; details: phase 3 lipid trials, N Engl J Med 2020; cited from earlier work
[2] = target: T1, free PCSK9 (Homo sapiens, UniProt Q8NBP7); test: single dose study: reduction of free plasma PCSK9 from baseline (target engagement); format: in vivo
T1 construct: reduction in plasma levels of free PCSK9 protein; from tissue; host or cells: plasma of healthy human volunteers (in vivo, endogenous)
T1 sequence (Q8NBP7 153-692): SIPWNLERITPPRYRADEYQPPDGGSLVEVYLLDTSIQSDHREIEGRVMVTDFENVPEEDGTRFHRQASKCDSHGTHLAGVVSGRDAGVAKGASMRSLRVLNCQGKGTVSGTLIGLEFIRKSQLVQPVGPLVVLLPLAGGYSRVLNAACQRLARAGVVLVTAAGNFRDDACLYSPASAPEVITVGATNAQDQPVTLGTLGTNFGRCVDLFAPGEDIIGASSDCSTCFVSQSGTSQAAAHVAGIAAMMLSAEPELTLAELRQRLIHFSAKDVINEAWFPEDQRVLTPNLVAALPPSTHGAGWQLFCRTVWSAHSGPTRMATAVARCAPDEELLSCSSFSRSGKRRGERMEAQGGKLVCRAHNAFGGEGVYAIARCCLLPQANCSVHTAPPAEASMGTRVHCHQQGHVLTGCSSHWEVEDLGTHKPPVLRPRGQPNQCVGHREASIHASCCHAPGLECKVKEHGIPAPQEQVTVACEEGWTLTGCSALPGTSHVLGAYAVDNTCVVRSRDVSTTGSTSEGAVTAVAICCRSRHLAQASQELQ
T1 sequence (Q8NBP7 31-152 partner limits assumed): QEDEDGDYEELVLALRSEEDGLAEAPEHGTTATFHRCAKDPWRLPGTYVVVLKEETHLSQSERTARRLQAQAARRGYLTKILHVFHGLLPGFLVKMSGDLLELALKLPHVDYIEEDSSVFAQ

[3] = single dose study: safety and tolerability
From the text: (§1) Evaluation of pharmacokinetics, pharmacodynamics (reduction of free PCSK9 from baseline) and safety and tolerability of single doses of the compound of formula (I) were studied in normal healthy male volunteers aged 18-50. […] Additionally, this trial examined the effect of permeation enhancer dose on PK, the effect of food on PK, and the effect of various capsule formulations on PK. The pharmacodynamic endpoint measured in this study was target engagement (% change in free PCSK9).
(§2) The capsules were over-encapsulated with enteric capsules (HPMC Vcaps® Enteric, Capsugel®, Lonza).

[4] = test system: LDL-C; test: multiple dose study: LDL-C reduction in participants on statin background therapy
Description: (§3) Standard takeaway meals were provided to participants to consume no less than 30 minutes after receiving their once daily dose. In addition to standard safety monitoring, including vital signs, ECG and laboratory safety tests, plasma lipids (total cholesterol, LDL-C, HDL-C and TG) were measured. LDL-C was monitored as part of the safety labs.
Blood LDL-cholesterol levels were measured using standard clinical laboratory testing procedures predose and on day 3, 7, 14, 15 and 21 after dosing.

[5] = stability of amorphous salt forms, impurity levels (FIG. 5); format: physicochemical; details: chloride salt made with HCl acidification step, risk of excess HCl
[6] = test system: LDL-C; details: ODYSSEY, N Engl J Med 2018; cited from earlier work
[7] = nonhuman primates; subcutaneous dosing plus oral arms; up to/including highest doses administered
[8] = test system: LDL-C; details: hard gelatin capsule, 5 mg plus 180 mg sodium caprate, participants taking statins
[9] = non-human primates; co-administration with permeation enhancer (Labrasol, sodium caprate)
[10] = rats; co-administration with permeation enhancer (Labrasol, sodium caprate)
[11] = rats; subcutaneous dosing plus oral arms; up to/including highest doses administered
[12] = From the text: as §1, §2
[13] = target: human PCSK9 (Homo sapiens, UniProt Q8NBP7)
human PCSK9, sequence (Q8NBP7 153-692): as the sequence (Q8NBP7 153-692) above

[14] = once daily for 14 days
Description: as §3

[15] = test system: LDL-C; details: FOURIER, N Engl J Med 2017; cited from earlier work
[16] = Panel A 200 mg no PE (permeation enhancer)
[17] = Panel B 120 mg with 720 mg Labrasol
[18] = Panel C 40 mg with 720 mg Na Caprate
[19] = Panel C 100 mg with 1800 mg Na caprate
[20] = single oral doses 10 to 300 mg, healthy male volunteers

For Inclisiran, the “reduction in LDL-C” value [1] is listed as 49-52%.

In the case of `COc1ccc(C[C@@H]2NC(=O)[C@H]([C@@H](C)O)NC(=O)[C@@H]3[C@@H]4CCN3C(=O)[C@@H]3Cc5cn(c6ccc(F)cc56)CCCCCCN(Cc5ccc(cc5)CCNC(=O)[C@]5(C)CCCN5C2=O)C(=O)CCC(=O)N[C@@H](C)C(=O)N[C@H](CNC(=O)CCCCC[N+](C)(C)C)C(=O)N[C@@H](Cc2cccc(c2)CNC(=O)CO4)C(=O)N3)cc1` [compound of formula (I)], the “mean maximum reduction of free plasma PCSK9 levels from baseline” value ([2]; single doses, all dose levels studied) is reported as “more than 90%”, the tolerability ([3]; single and multiple oral doses in healthy volunteers) is reported as “generally well tolerated” and the “lowering of LDL-cholesterol in the blood from baseline” value ([4]; 14 days of once daily oral dosing, background of moderate-to-high intensity statin therapy) is reported as “approximately 65%”.

In the case of `COc1ccc(C[C@@H]2NC(=O)[C@H]([C@@H](C)O)NC(=O)[C@@H]3[C@@H]4CCN3C(=O)[C@@H]3Cc5cn(c6ccc(F)cc56)CCCCCCN(Cc5ccc(cc5)CCNC(=O)[C@]5(C)CCCN5C2=O)C(=O)CCC(=O)N[C@@H](C)C(=O)N[C@H](CNC(=O)CCCCC[N+](C)(C)C)C(=O)N[C@@H](Cc2cccc(c2)CNC(=O)CO4)C(=O)N3)cc1` [Compound 3], the “stability / impurity levels of amorphous salt” value [5] is reported as “demonstrate stability”.

In the case of “Praluent: anti-PCSK9 monoclonal antibody”, the “reduction in LDL-C” value [6] is given as 59%.

For `COc1ccc(C[C@@H]2NC(=O)[C@H]([C@@H](C)O)NC(=O)[C@@H]3[C@@H]4CCN3C(=O)[C@@H]3Cc5cn(c6ccc(F)cc56)CCCCCCN(Cc5ccc(cc5)CCNC(=O)[C@]5(C)CCCN5C2=O)C(=O)CCC(=O)N[C@@H](C)C(=O)N[C@H](CNC(=O)CCCCC[N+](C)(C)C)C(=O)N[C@@H](Cc2cccc(c2)CNC(=O)CO4)C(=O)N3)cc1.[Cl-]` [Compound 1], the “GM Maximum Percent Target Reduction From Baseline of Free PCSK9” value ([2]; Panel A 10 mg single dose) was 93.32%, the “Posterior Probability of True GM Free PCSK9 Maximum Percent Reduction ≥80%” value ([2]; Panel A 10 mg single dose) was >0.99 and the “GM Maximum Percent Target Reduction From Baseline of Free PCSK9” value [2, 16] was 96.83%. The “Posterior Probability of True GM Free PCSK9 Maximum Percent Reduction ≥80%” value [2, 16] was >0.99, the “GM Maximum Percent Target Reduction From Baseline of Free PCSK9” value ([2]; Panel A 200 mg single dose) was 99.46% and the “Posterior Probability of True GM Free PCSK9 Maximum Percent Reduction ≥80%” value ([2]; Panel A 200 mg single dose) was >0.99. For the same molecule, the “GM Maximum Percent Target Reduction From Baseline of Free PCSK9” value ([2]; Panel B 35 mg single dose) was 98.72%, the “Posterior Probability of True GM Free PCSK9 Maximum Percent Reduction ≥80%” value ([2]; Panel B 35 mg single dose) was >0.99 and the “GM Maximum Percent Target Reduction From Baseline of Free PCSK9” value [2, 17] was 99.43%. The “Posterior Probability of True GM Free PCSK9 Maximum Percent Reduction ≥80%” value [2, 17] was >0.99, the “GM Maximum Percent Target Reduction From Baseline of Free PCSK9” value ([2]; Panel B 300 mg single dose) was 99.68% and the “Posterior Probability of True GM Free PCSK9 Maximum Percent Reduction ≥80%” value ([2]; Panel B 300 mg single dose) was >0.99. The “GM Maximum Percent Target Reduction From Baseline of Free PCSK9” value [2, 18] was 97.94%, the “Posterior Probability of True GM Free PCSK9 Maximum Percent Reduction ≥80%” value [2, 18] was >0.99 and the “GM Maximum Percent Target Reduction From Baseline of Free PCSK9” value ([2]; Panel C 100 mg single dose) was 99.36%. For the same molecule, the “Posterior Probability of True GM Free PCSK9 Maximum Percent Reduction ≥80%” value ([2]; Panel C 100 mg single dose) was >0.99, the “GM Maximum Percent Target Reduction From Baseline of Free PCSK9” value [2, 19] was 99.18% and the “Posterior Probability of True GM Free PCSK9 Maximum Percent Reduction ≥80%” value [2, 19] was >0.99. The “adverse effects in GLP toxicity study” value [7] was “no adverse effects were observed”, the “% LDL-C reduction from baseline” value [8] was < 50% and the GI absorption [9] was “improved”. For the same molecule, the “adverse events related to Compound 1 reported by the Investigator” value [3, 20] was “abdominal discomfort, diarrhea, dyspepsia, headache, and maculopapular rash”, the “deaths or severe adverse events (SAEs)” value [3, 20] was “no death or severe adverse events” and the tolerability ([3]; single oral doses up to 300 mg, healthy male volunteers) was “well tolerated”. For the same molecule, the “severity of treatment-related AEs” value ([3]; single oral doses, exception of one participant with severe back pain, not dose-related) was “mild/moderate”, the GI absorption [10] was “improved” and the “adverse effects in GLP toxicity study” value [11] was “no adverse effects were observed”. The “stability / impurity levels of amorphous salt” value [5] was “higher impurity levels”, the “mean reduction of LDL-C” value ([4]; 10 mg plus 180 mg sodium caprate, once daily for 14 days, statin background) was “approximately 60%” and the “mean reduction of LDL-C” value ([4]; 10 mg plus 360 mg sodium caprate, once daily for 14 days, statin background) was “approximately 64%”. For the same molecule, the “mean reduction of plasma LDL-C” value ([4]; 20 mg plus 360 mg sodium caprate, once daily for 14 days, statin background) was “approximately 62%”, the “effect of food on plasma exposure” value ([12]; food consumed 30 minutes after the dose) was “negligible effect” and the “effect of food on plasma exposure” value ([12]; food consumed 30 minutes before dosing, compared to fasted) was “lower plasma exposure”. For the same molecule, the “PK in the presence of Labrasol versus sodium caprate” value ([12]; single dose) was “similar”, the “effect of permeation enhancers on absorption (Cmax and AUC0-24)” value ([12]; single dose, with vs without permeation enhancer) was “improve absorption” and the “plasma exposure versus dose” value ([12]; single oral doses 10 to 300 mg) was “dose dependent increase”. For the same molecule, the “binding affinity against human PCSK9” value [13] was “picomolar” and the “PK of 10 mg plus 180 mg sodium caprate versus 10 mg plus 360 mg sodium caprate” value [14] was “similar”.

B1: Repatha: anti-PCSK9 monoclonal antibody (antibody, chains of the INN, looked up, V domains shown)
VH: EVQLVQSGAEVKKPGASVKVSCKASGYTLTSYGISWVRQAPGQGLEWMGWVSFYNGNTNYAQKLQGRGTMTTDPSTSTAYMELRSLRSDDTAVYYCARGYGMDVWGQGTTVTVSS
VL: ESALTQPASVSGSPGQSITISCTGTSSDVGGYNSVSWYQQHPGKAPKLMIYEVSNRPSGVSNRFSGSKSGNTASLTISGLQAEDEADYYCNSYTSTSMVFGGGTKLTVL
For B1, the “reduction in LDL-C” value [15] is listed as 59%.

— patent publication US20240238367A1, “COMPOUNDS FOR TREATING CONDITIONS RELATED TO PCSK9 ACTIVITY” (MERCK SHARP & DOHME LLC, priority 2021, published 2024)
